Laboratory results: patent EP0337503B1, “Fumigation methods and compositions” (Entek Corporation, priority 1983, dated 1984)

Columns and labels:
[1] = Decomposition in sandy loam soil at different moisture, CS2 in air space by gas chromatography; format: physicochemical; details: hours to maximum CS2 concentration in the air space
Procedure: A sandy loam soil is placed in 1-liter glass bottles, fitted with stoppers having fluorocarbon liners and silicone rubber septa, to give a soil depth of about 4 cm. […] Thiocarbonate solution or carbon disulfide is injected near the bottom of the soil layer, the bottles are promptly sealed, and the air space in the bottles is sampled at intervals with a syringe, for gas chromatographic analysis of CS2. Results are summarized below, wherein degradation time is the number of hours required to achieve the maximum CS2 concentration in the air space.

[2] = Storage stability: loss of ability of aqueous solutions to generate carbon disulfide upon contact with strong acid; format: physicochemical; details: aqueous solutions of tetrathiocarbonate salts, about 14 to about 16 percent by weight carbon disulfide equivalent, air-tight glass containers, 49° C.; listed as K^+
Procedure: Various tetrathiocarbonate salts are evaluated for storage stability by measuring the loss of the ability of aqueous solutions thereof to generate carbon disulfide upon contact with strong acid. Aqueous solutions of the salts listed in the following table, having an equivalent of from about 14 to about 16 percent by weight carbon disulfide, are stored in air-tight glass containers at a temperature of 49° C.

[3] = tested on: Fusarium oxysporum; assay: Fungicidal test, radial growth of mycelia colonies; format: cell-based; details: listed as K2CS4 (9.43%CS2)
Procedure: (§1) Thiocarbonate solutions are used in a test of their fungicidal properties. Cultures of four plant pathogenic fungi are grown upon potato dextrose agar at room temperature, in diffuse natural lighting. After one week, square blocks having 2 millimeter sides are cut from the edges of actively growing mycelia spots on the agar.
(§2) The blocks are immersed in sterile deionized water, as a control, or in dilutions of thiocarbonate solutions using the sterile water, in a closed container. Subsequently, the blocks are removed and placed upon agar in clean plates, and mycelia are allowed to grow for one week.
(§3) Radial growth of mycelia colonies is measured for each of the six to eight replicate plates used for a particular fungus, and average colony radius is calculated. Percent control is defined by the following equation: Percent control =[1-((Average radius of treated plates)/(Average radius of control plates))]x100 [formula]
(§4) Concentrations given for solutions used to treat the agar blocks are expressed in grams of thiocarbonate solution per liter of diluted solution.

[4] = tested on: Phytophthora cinnamomi; assay: Fungicidal test, radial growth of mycelia colonies; format: cell-based
Procedure: as §1, §2, §3, §4

[5] = tested on: Verticillium dahliae; assay: Fungicidal test, radial growth of mycelia colonies; format: cell-based
Procedure: as §1, §2, §3, §4

[6] = tested on: Sclerotium rolfsii; assay: Fungicidal test, radial growth of mycelia colonies; format: cell-based
Procedure: as §1, §2, §3, §4

[7] = tested on: nematode larvae; assay: In-vitro nematocidal test: larvae treated in aqueous suspension, injected into root zone of tomato plants, gall count; format: in vivo, Meloidogyne incognita; details: for Gall Count, replicate 2: control 88; for Gall Count, Mean: control 89; for Gall Count, replicate 1: control 90
Procedure: The procedure of Example 2 is repeated except that potassium tetrathiocarbonate is substituted for stabilized ammonium tetrathiocarbonate and an in-vitro nematocidal test is used. In the in-vitro test, the nematode larvae are treated in aqueous suspension for 1 hour at the concentrations of fumigant given in the following table, washed twice with water, and injected into the active root zone of the tomato plants. After thirty days the roots are harvested, examined for galling, giving the results summarized below.

[8] = Effect of pH on production of CS2 from thiocarbonates in citrate-phosphate buffers, gas chromatography of air; format: physicochemical
Procedure: Pure carbon disulfide is also injected, for comparison. A syringe is used to periodically sample air in the bottle, and the air is analyzed by gas chromatography.

[9] = Rate of carbon disulfide loss from solutions, nitrogen bubbling, mass spectrometer; format: physicochemical; details: undiluted: Prep. 1 100%; pure carbon disulfide for comparison
Procedure: The rate at which carbon disulfide is lost from diluted ammonium thiocarbonate compositions is determined by bubbling nitrogen through the solutions, and measuring the carbon disulfide content of the gas which leaves the solution, using a mass spectrometer.
In the determination, the solution, corresponding to that of Preparation 1 (containing 14.1 percent by weight carbon disulfide), is compared to pure carbon disulfide, and to serial dilutions of the Preparation 1 solution with water, which prepared 10, 1 and 0.1 volume percent solutions of the original composition.
Results are as tabulated, wherein k is the calculated first order rate constant for loss of carbon disulfide, and t is the solution half-life.

[10] = tested on: root-knot nematode larvae (Meloidogyne incognita); assay: Greenhouse nematocide experiment with tomato plants, soil drench, root gall count; format: in vivo; details: 30 days; for Gall Counts, replicate 3: control 1; for Gall Counts, Mean: control 4.0; for Gall Counts, replicate 2: control 7; for Gall Counts, replicate 1: control 4
Procedure: In the experiment, thirty containers are used, each containing about 500 grams of sterilized sandy loam soil. Each container contains one tomato plant. Each container is injected with four 5-milliliter portions of extract from nematode-infested pepper roots, one inch below the soil surface, producing an initial population of 2000 root-knot nematode larvae (Meloidogyne incognita) per container.
Ten treatments are replicated three times, each treatment consisting of drenching the soil with a solution containing the fumigant to provide the dosage of CS2 given in the following table. The solutions are diluted with sufficient water to saturate the soil. The treatments include calcium tetrathiocarbonate, stabilized ammonium tetrathiocarbonate, and carbon disulfide at three levels, plus an untreated control. After drenching, each container is allowed to stand at ambient conditions. The plants are harvested after 30 days of growth, and soil is removed from the roots by a gentle washing with water. By use of a magnifying glass, the number of root galls is counted on each plant.
Results are summarized below, wherein the "Application" represents milligrams of treatment per kilogram of soil, calculated as the thiocarbonate salt and the equivalent carbon disulfide. Gall counts are mean values from the three replicates.

[11] = Soil Moisture 0 % of Saturation
[12] = Soil Moisture 50 % of Saturation
[13] = Soil Moisture 100 % of Saturation
[14] = 1 g/l, listed as K2CS4 (9.43%CS2)
[15] = 10 g/l, listed as K2CS4 (9.43%CS2)
[16] = 50 ppm salt (6.3 ppm CS2 equiv. CaCS4; 6.5 ppm K2CS4), larvae treated 1 hour
[17] = 100 ppm salt (12.5 ppm CS2 equiv. CaCS4; 13 ppm K2CS4), larvae treated 1 hour
[18] = 150 ppm salt (18.8 ppm CS2 equiv. CaCS4; 19.5 ppm K2CS4), larvae treated 1 hour
[19] = 10 ppm CS2, larvae treated 1 hour
[20] = 20 ppm CS2, larvae treated 1 hour
[21] = highest application: 638/89 ppm ((NH4)2CS4·(NH4)2S), 730/91 (CaCS4), 97 ppm (CS2)
[22] = lowest application: 213/30 ppm ((NH4)2CS4·(NH4)2S), 245/31 (CaCS4), 32 ppm (CS2)
[23] = middle application: 425/60 ppm ((NH4)2CS4·(NH4)2S), 490/61 (CaCS4), 65 ppm (CS2)

S=C(S)SS [Formula K2CS4, potassium tetrathiocarbonate]
Degradation Time [1, 11]: 2 h
Degradation Time [1, 12]: 5 h
Degradation Time [1, 13]: 48 h
Half-life (months) [2]: 2.9 months
Percent Control Fusarium oxysporum ([3]; 1 g/l): 8%
Percent Control Fusarium oxysporum ([3]; 10 g/l): 10%
Percent Control Fusarium oxysporum ([3]; 100 g/l thiocarbonate solution per liter of diluted solution): 76%
Percent Control Phytophthora cinnamomi [4, 14]: 56%
Percent Control Phytophthora cinnamomi [4, 15]: 68%
Percent Control Phytophthora cinnamomi ([4]; 100 g/l): 100%
Percent Control Verticillium dahliae [5, 14]: 27%
Percent Control Verticillium dahliae [5, 15]: 15%
Percent Control Verticillium dahliae ([5]; 100 g/l): 100%
Percent Control Sclerotium rolfsii [6, 14]: 42%
Percent Control Sclerotium rolfsii [6, 15]: 8%
Percent Control Sclerotium rolfsii ([6]; 100 g/l): 100%
Gall Count, replicate 2 [7, 16]: 66
Gall Count, Mean [7, 16]: 49.5
Gall Count, replicate 1 [7, 16]: 33
Gall Count, replicate 2 [7, 17]: 145
Gall Count, Mean [7, 17]: 171.5
Gall Count, replicate 1 [7, 17]: 198
Gall Count, replicate 2 [7, 18]: 22
Gall Count, Mean [7, 18]: 35.5
Gall Count, replicate 1 [7, 18]: 49

S=C=S [CS2, carbon disulfide, reference compound]
Degradation Time [1, 11]: 3.5 h
Degradation Time [1, 12]: 3.5 h
Degradation Time [1, 13]: 3.5 h
Half-life (minutes) for production of carbon disulfide ([8]; pH 5.2, 125 milligrams per liter of thiocarbonate ion): 1 min
Half-life (minutes) for production of carbon disulfide ([8]; pH 6.0, 125 milligrams per liter of thiocarbonate ion): 1 min
Half-life (minutes) for production of carbon disulfide ([8]; pH 7.0, 125 milligrams per liter of thiocarbonate ion): 1 min
Half-life (minutes) for production of carbon disulfide ([8]; pH 8.0, 125 milligrams per liter of thiocarbonate ion, CaCS4 values above pH 7 called unreliable): 1 min
k, calculated first order rate constant for loss of carbon disulfide [9]: 2.0 (1)/(hour)
Gall Count, replicate 2 [7, 19]: 149
Gall Count, Mean [7, 19]: 106.5
Gall Count, replicate 1 [7, 19]: 64
Gall Count, replicate 2 [7, 20]: 73
Gall Count, Mean [7, 20]: 51.0
Gall Count, replicate 1 [7, 20]: 29
Gall Counts, replicate 3 [10, 21]: 9
Gall Counts, Mean [10, 21]: 20.0
Gall Counts, replicate 2 [10, 21]: 24
Gall Counts, replicate 1 ([10]; highest application: 638 ppm salt/89 ppm Eq. CS2 ((NH4)2CS4·(NH4)2S), 730/91 (CaCS4), 97 ppm (CS2)): 27
Gall Counts, replicate 3 [10, 22]: 12
Gall Counts, Mean [10, 22]: 22.0
Gall Counts, replicate 2 [10, 22]: 23
Gall Counts, replicate 1 ([10]; lowest application: 213 ppm salt/30 ppm Eq. CS2 ((NH4)2CS4·(NH4)2S), 245/31 (CaCS4), 32 ppm (CS2)): 31
Gall Counts, replicate 3 [10, 23]: 33
Gall Counts, Mean [10, 23]: 26.7
Gall Counts, replicate 2 [10, 23]: 19
Gall Counts, replicate 1 ([10]; middle application: 425 ppm salt/60 ppm Eq. CS2 ((NH4)2CS4·(NH4)2S), 490/61 (CaCS4), 65 ppm (CS2)): 28
